Assay results as given in patent publication US11311522B1 (Cavion, Inc., priority 2018, dated 2022).

How the values were obtained:
[1] = PN003: safety and tolerability; type: in vivo; details: for At least 1 adverse event / Disorientation / Dry mouth / Gastrointestinal Disorders / Hallucinations visual / Headache / Insomnia / Nausea / Nervous System Disorders / Psychiatric Disorders / Somnolence / Vivid dreams: Study PN003/Part I and Part II
Source text: Additional adverse events, including mood swings, feeling frightened, laughing intermittently, difficulty moving hands, feeling weak, enhanced taste, loss of fine sensation in fingertips, some loss of sensation at skin level (all over body), and out of body feeling, were reported as the day progressed. All adverse events were mild or moderate in severity. Most events began minutes to hours after dosing, and all had resolved by 3 days after dosing. The adverse events that the subject experienced were described as “mood swings” and led to discontinuation of dosing. […] In addition, they reported feeling angry towards another subject, feeling dizzy/drunk, intense daydreams, shaking/trembling, and sweating. All adverse events were mild in severity, and all were considered possibly related to the study drug. The last dose of CX-8998 was not administered. All adverse events resolved after discontinuation of the study drug. […] The subject experienced nervous system-related events of gradually increasing severity, including lightheadedness, euphoria, tiredness, headache, hard to follow thoughts, vulnerable thoughts and emotions, feeling flat, and weak in the muscles. All adverse events were mild or moderate in severity, and all were considered possibly related to the study drug. The last dose of CX-8998 was not administered. All adverse events resolved after discontinuation of the study drug. […] Oxygen saturation and serum glucose levels were within normal limits, but the subject's blood pressure was low at the time of the event (76/43 mmHg, with a pulse rate of 59 bpm). […] The event was judged by the investigator as moderate in severity and as probably related to the study drug. The subject was discontinued from the study because of ongoing nausea and feelings of weakness and lethargy. […] The subject was not on telemetry at the time. The investigator considered the event to be a vasovagal reaction (moderate in severity) and assessed the event as unrelated to the study drug. The subject continued in the study and completed the planned 7 days of treatment. […] A washout period of at least 2 weeks separated the treatment periods. […] The PSG recordings were initiated at each subject's habitual bedtime and continued for 8 hours. In addition to PSG recordings, subjects were evaluated on the next day with subjective measures of sleep quality (Leeds Sleep Evaluation Questionnaire) and sleepiness (Karolinska Sleepiness Scale) and with cognitive and motor tasks to assess next-morning residual effects. An interim analysis of the primary endpoint (slow wave activity in the first one-third of sleep) was performed after 24 subjects had completed Part I of the study (Section 5.3.3.1.2). The study was adaptively designed to allow a re-estimation of the sample size after the interim analysis. Based on the results of the interim analysis, the study could be stopped if the efficacy criterion (increase in slow wave activity, p<0.05) or futility criterion (p>0.25) was achieved. If neither criterion was met, a re-estimation of the sample size was specified, with the ability to enroll up to 24 additional subjects. […] As in Part I of the study, PSG recordings were initiated at each subject's habitual bedtime and continued for 8 hours, and subjects were evaluated on the next day with subjective measures of sleep quality (Leeds Sleep Evaluation Questionnaire) and sleepiness (Karolinska Sleepiness Scale) and with cognitive and motor tasks to assess next-morning residual effects.
All reported adverse experiences were temporary and generally of mild intensity.
The visual disturbances tended to cease with eye opening and to recur with eye closure and were generally not disturbing to the subjects. […] No serious adverse events were reported, and none of the subjects discontinued treatment because of an adverse event. […] 5.3.3.1.3.2 Other Safety Assessments No clinically significant trends in safety laboratory parameters or vital signs were observed. […]

[2] = Crossover bioavailability study: adverse events; type: in vivo, human; details: Any Treatment (Original IR, MR1 or MR2), single 8 mg doses; subjects n (%), N = 15
[3] = Excretion of 14C-labeled CX-8998 in rats; type: in vivo, rat; details: 20 mg/kg oral
Source text: Glucuronide conjugates of the oxygenated metabolites are detected in human, monkey, and dog hepatocyte preparations. […] However, the abundance of CYP3A5, CYP2C19, and CYP2D6 in human liver microsomes is low (2%-5%) relative to the primary contributors, CYP3A4 (˜30%) and CYP2C9 (˜20%). […] Information on reproductive and developmental toxicology was obtained in a 28-day pivotal female fertility study in rats and in preliminary embryo-fetal development studies in rats and rabbits.

[4] = in vivo
[5] = single dose 4 mg, N = 12 exposures
[6] = single dose 8 mg, N = 9 exposures
[7] = single dose 12 mg, N = 54 exposures

For CC(C)c1ccc(CC(=O)N[C@H](C)c2ccc(OCC(F)(F)F)cn2)cc1 [CX-8998], the “Exposures with increase from baseline of ≥30 and ≤60 msec in QTc” value ([1]; 8 mg) was 11.1%, the “Exposures with increase from baseline of ≥30 and ≤60 msec in QTc” value ([1]; 12 mg) was 5.6% and the “At least 1 adverse event” value ([1]; Any Dose, N = 75 exposures) was 33 (44.0) n (%). The Disorientation ([1]; Any Dose, N = 75 exposures) was 3 (4.0) n (%), the Dry mouth ([1]; Any Dose, N = 75 exposures) was 2 (2.7) n (%) and the “Gastrointestinal Disorders” value ([1]; Any Dose, N = 75 exposures) was 7 (9.3) n (%). For the same molecule, the Hallucinations visual ([1]; Any Dose, N = 75 exposures) was 4 (5.3) n (%), the Headache ([1]; Any Dose, N = 75 exposures) was 9 (12.0) n (%) and the Insomnia ([1]; Any Dose, N = 75 exposures) was 3 (4.0) n (%). The Nausea ([1]; Any Dose, N = 75 exposures) was 2 (2.7) n (%), the “Nervous System Disorders” value ([1]; Any Dose, N = 75 exposures) was 15 (20.0) n (%) and the “Psychiatric Disorders” value ([1]; Any Dose, N = 75 exposures) was 17 (22.7) n (%). The Somnolence ([1]; Any Dose, N = 75 exposures) was 6 (8.0) n (%), the Vivid dreams ([1]; Any Dose, N = 75 exposures) was 4 (5.3) n (%) and the “At least 1 adverse event” value [1, 5] was 4 (33.3) n (%). The Disorientation [1, 5] was 0 n (%), the Dry mouth [1, 5] was 0 n (%) and the “Gastrointestinal Disorders” value [1, 5] was 1 (8.3) n (%). For the same molecule, the Hallucinations visual [1, 5] was 2 (16.7) n (%), the Headache [1, 5] was 1 (8.3) n (%) and the Insomnia [1, 5] was 1 (8.3) n (%). For the same molecule, the Nausea [1, 5] was 1(8.3) n (%), the “Nervous System Disorders” value [1, 5] was 2 (16.7) n (%) and the “Psychiatric Disorders” value [1, 5] was 3 (25.0) n (%). For the same molecule, the Somnolence [1, 5] was 1 (8.3) n (%), the Vivid dreams [1, 5] was 0 n (%) and the “At least 1 adverse event” value [1, 6] was 2 (22.2) n (%). For the same molecule, the Disorientation [1, 6] was 0 n (%), the Dry mouth [1, 6] was 0 n (%) and the “Gastrointestinal Disorders” value [1, 6] was 1 (11.1) n (%). The Hallucinations visual [1, 6] was 0 n (%), the Headache [1, 6] was 0 n (%) and the Insomnia [1, 6] was 0 n (%). For the same molecule, the Nausea [1, 6] was 0 n (%), the “Nervous System Disorders” value [1, 6] was 1 (11.1) n (%) and the “Psychiatric Disorders” value [1, 6] was 0 n (%). The Somnolence [1, 6] was 1 (11.1) n (%), the Vivid dreams [1, 6] was 0 n (%) and the “At least 1 adverse event” value [1, 7] was 27 (50.0) n (%). The Disorientation [1, 7] was 3 (5.6) n (%), the Dry mouth [1, 7] was 2 (3.7) n (%) and the “Gastrointestinal Disorders” value [1, 7] was 5 (9.3) n (%). The Hallucinations visual [1, 7] was 2 (3.7) n (%), the Headache [1, 7] was 8 (14.8) n (%) and the Insomnia [1, 7] was 2 (3.7) n (%). The Nausea [1, 7] was 1 (1.9) n (%), the “Nervous System Disorders” value [1, 7] was 12 (22.2) n (%) and the “Psychiatric Disorders” value [1, 7] was 14 (25.9) n (%). The Somnolence [1, 7] was 4 (7.4) n (%), the Vivid dreams [1, 7] was 4 (7.4) n (%) and the “Adverse Event: Abnormal dreams” value [2] was 3 (20%). The “Adverse Event: Any” value [2] was 11 (73%), the “Adverse Event: Dizziness” value [2] was 5 (33%) and the “Adverse Event: Euphoric mood” value [2] was 2 (13%). For the same molecule, the “Adverse Event: Feeling abnormal” value [2] was 4 (27%), the “Adverse Event: Headache” value [2] was 5(33%) and the “Adverse Event: Nervous System” value [2] was 10 (67%). For the same molecule, the “Adverse Event: Paresthesias” value [2] was 7 (47%), the “Adverse Event: Psychiatric” value [2] was 5 (33%) and the “Dose excreted in feces as unchanged drug” value [3] was “Less than 1%”. For the same molecule, the Radioactivity in feces [3] was “approximately 5%”, the “Radioactivity recovered in bile” value [3] was 46% and the “Radioactivity recovered in urine” value [3] was 43%. The “Recovered radioactivity excreted in the first day” value [3] was greater than 85%, the “Recovery of label after 72 hours” value [3] was roughly 96% and the “Micronuclei induction in bone marrow result” value [4] was “negative”.
